Experimental data reported in PubChem BioAssay (NCI).
“And” between values parts separate entries of the source, which are not always exact repeats. Equal entries are not always repeated.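 Briefly, cells in 96-well plates were exposed to five compound concentrations for 48 h, and endpoints were estimated by linear interpolation. GI50 marks 50% less growth. TGI denotes the concentration required for complete inhibition of growth.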

Legend:
Assay in all cases: NCI anticancer screen, dose series, 48 h
ACHN renal = tested on: ACHN renal
HCT-15 colon = tested on: HCT-15 colon
HOP-62 NSCLC = tested on: HOP-62 NSCLC
K-562 leukemia = tested on: K-562 leukemia
MOLT-4 leukemia = tested on: MOLT-4 leukemia
NCI-H522 lung = tested on: NCI-H522 lung
SK-MEL-28 melanoma = tested on: SK-MEL-28 melanoma
UO-31 renal = tested on: UO-31 renal

Structure (SMILES)	GI50 (ACHN renal)	TGI (ACHN renal)	GI50 (HCT-15 colon)	TGI (HCT-15 colon)	GI50 (HOP-62 NSCLC)	TGI (HOP-62 NSCLC)	GI50 (K-562 leukemia)	TGI (K-562 leukemia)	GI50 (MOLT-4 leukemia)	TGI (MOLT-4 leukemia)	GI50 (NCI-H522 lung)	TGI (NCI-H522 lung)	GI50 (SK-MEL-28 melanoma)	TGI (SK-MEL-28 melanoma)	GI50 (UO-31 renal)	TGI (UO-31 renal)
N#Cc1c(-c2ccccc2)cc(-c2ccccc2)n(CCCCC(=O)NO)c1=O	2.32 µM	7.91 µM	0.57 µM	13.6 µM	2.24 µM	7.35 µM	2.1 µM	12.4 µM	1.84 µM	8.83 µM	2.06 µM	8.36 µM	2.8 µM	10.4 µM	1.22 µM	3.47 µM
COC(=O)c1ccc([N+](=O)[O-])c(O)c1		> 100 µM		> 100 µM		> 100 µM		> 100 µM		> 100 µM		> 100 µM		> 100 µM		> 100 µM
CN(C)CCCNc1nccc(-c2c(-c3ccc(F)cc3)nn3cc(C(F)(F)F)ccc23)n1	10.3 µM	> 25 µM	7.26 µM	> 25 µM	8.53 µM	> 25 µM	4.81 µM	14.2 µM	6.37 µM	17.3 µM	6.77 µM	> 25 µM	4.29 µM	8.49 µM	2.91 µM	> 25 µM
CC(=O)OCC1OC(OC2=C(CC=C(Cl)Cl)C(=O)c3ccccc3C2=O)C(OC(C)=O)C(OC(C)=O)C1OC(C)=O (stereo not given)	3.24 µM	12 µM	3.64 µM	21.3 µM	18.5 µM	34.4 µM	1.06 µM	> 100 µM	1.43 µM	9.89 µM	2.17 µM	5.2 µM	3.93 µM	12.8 µM	1.44 µM	3.37 µM
CNC(C)C(=O)N[C@H](C(=O)N1CCC[C@@H]1CN(CCc1ccccc1)C(=O)C(F)(F)F)[C@H](C)OCC#CC#CCO[C@H](C)[C@H](NC(=O)[C@H](C)NC)C(=O)N1CCC[C@H]1CN(CCc1ccccc1)C(=O)C(F)(F)F (stereo not given in full)	1.85 µM	3.44 µM	1.76 µM	3.75 µM	0.729 µM	2.46 µM	0.366 µM	1.49 µM	1.75 µM	4.1 µM	0.724 µM	2.18 µM	1.54 µM	2.96 µM	2.14 µM	3.98 µM
C#COc1cccc(Nc2ncnc3ncc(NC(=O)CCl)cc23)c1		> 62.5 µM	> 14 µM	> 62.5 µM	> 62.5 µM	> 62.5 µM		> 62.5 µM		> 62.5 µM	> 17.9 µM	> 29.9 µM	> 59.6 µM	> 62.5 µM	> 14 µM	> 33.2 µM
NCC1OC(OC2C(CO)OC(OC3C(O)C(N)CC(N)C3OC3OC(CO)C(O)C(O)C3N)C2O)C(N)C(O)C1O (stereo not given)	> 50 µg/mL	> 50 µg/mL	> 50 µg/mL	> 50 µg/mL	> 50 µg/mL	> 50 µg/mL	> 50 µg/mL	> 50 µg/mL			> 50 µg/mL	> 50 µg/mL	> 50 µg/mL	> 50 µg/mL	> 50 µg/mL	> 50 µg/mL
CC(=O)OC1CCC2(C)C(=CCC3C2CCC2(C)C(C(C)C(=O)O)CCC32)C1 (stereo not given)		> 100 µM		> 100 µM		> 100 µM		> 100 µM		> 100 µM		> 100 µM		> 100 µM		> 100 µM
CC[C@H](C)n1cc(C)c2c(C(=O)NCc3c(C)cc(C)[nH]c3=O)cc(-c3ccc(N4CCNCC4)nc3)cc21	17.1 µM and 16.5 µM	31.2 µM and 31.3 µM	15.9 µM and 12.6 µM	30.7 µM and 26.5 µM	17.1 µM and 14.9 µM	33.1 µM and 29.8 µM	2.87 µM and 3.2 µM	8.09 µM and 10.9 µM	5.87 µM and 6.18 µM	20.6 µM and 22 µM	17.6 µM and 14 µM	34.2 µM and 29.5 µM	14.1 µM and 6.51 µM	27.8 µM and 19.9 µM	15.3 µM and 12.9 µM	29.6 µM and 27.3 µM
CC(=O)OC(C)(C)N=Nc1ccc(Br)cc1		23.1 µM		> 100 µM		> 100 µM		21.4 µM		> 90.3 µM		33.8 µM		> 100 µM		15.9 µM
Cc1ccccc1N=Nc1c(O)[nH]c2ccccc12		> 100 µM		> 100 µM		> 100 µM		> 100 µM		> 100 µM		> 100 µM		> 100 µM		> 100 µM
CCc1c(Cl)nc(Cl)nc1Cl		0.219 µM		0.601 µM		5.81 µM		> 32 µM		9.5 µM		0.113 µM		5.54 µM		4.85 µM
CC1=C([Se]CC(OC(=O)[C@@H](CO)NC(=O)OC(C)(C)C)C(=O)NC(C)(C)C)C(=O)c2ccccc2C1=O (stereo not given in full)	1.57 µM	3.02 µM	1.99 µM	3.97 µM	0.53 µM	1.86 µM					1.6 µM	3.14 µM	2.06 µM	3.55 µM	1.45 µM	2.94 µM
O=C1/C(=C\c2coc3ccccc3c2=O)c2ccccc2N1c1c(Cl)cccc1Cl	4.14 µM	> 100 µM	0.65 µM	> 100 µM	4.77 µM	> 100 µM	2.08 µM	> 100 µM	2.98 µM	> 100 µM			3.91 µM	> 100 µM	1.8 µM	11.9 µM
Cc1cc(-c2nc(-c3ccc(OC(F)(F)F)cc3)no2)nn1Cc1ccnc(N2CCN(C3CC3)CC2)c1	3.1 µM	> 100 µM	3.84 µM	> 62 µM			< 0.01 µM	> 100 µM	3.73 µM	84.8 µM	2.68 µM	58.1 µM	3.6 µM	> 40.2 µM	4.4 µM	> 100 µM
CC1(C)CC2C=C(C=O)C3(C=O)CC3(C)C2C1 (stereo not given)		2.83 µM		3.94 µM		8.86 µM				1.15 µM		2.51 µM		4.19 µM		3.29 µM
COc1ccc2c(=O)c3cc([N+](=O)[O-])ccc3n(C)c2c1		> 100 µM		> 100 µM				> 100 µM		> 100 µM		> 100 µM		> 100 µM		> 100 µM
N#Cc1cccc(NC(=O)c2oc3ccccc3c2-c2cnn(-c3ccccc3)c2)c1	> 500 µM	> 500 µM	> 500 µM	> 500 µM	320 µM	> 500 µM	> 500 µM	> 500 µM			> 500 µM	> 500 µM	> 500 µM	> 500 µM	41.2 µM	> 500 µM
